Source: patent publication US20220000872A1, “METHOD OF ENHANCING IMMUNE-BASED THERAPY” (OncoTracker, Inc., priority 2018, published 2022)
“Also recorded” adds a separate entry of the source.

Columns and labels:
[1] = tested on: CD8 gene expression; experiment: CD8 gene expression in MMBM (Example 12); type: cell-based, human
Method: (§1) Bone marrow mononuclear cells (BMMCs) were collected from MM patients after obtaining IRB approval. Single-cell suspensions were prepared from human MM LAGλ-1A xenografts which had been grown in severe combined immunodeficient mice. HS-5 stromal and SUP-T1 T cells were purchased from ATCC. The cells were cultured and treated with or without RUX and then subjected to qRT-PCR, flow cytometric analysis, and western blot analysis. For qRT-PCR, total RNA was extracted and applied to cDNA synthesis, followed by qPCR. Gene expression was analyzed in MM BMMCs alone or co-cultured with stromal cells or T cells with or without Rux treatment (1 μM) in vitro.
(§2) Next, we tested whether B7-H3 blockade by Rux could potentially restore exhausted T cell activity against myeloma cells in MMBM.

[2] = tested on: IL-2 gene expression; experiment: IL-2 gene expression in MMBM (Example 12); type: cell-based, human
Method: as §1, §2

[3] = tested on: MM cell; experiment: MM cell apoptosis in the presence of IL-2 stimulated T-cells (Example 11); type: cell-based, human; details: RUX 0-5 μM; antibodies 0-10 μg/ml; concentration dependent
Method: We further investigated the effects of RUX on PD-L1 and PD-L2 expression in primary and stromal cells from MM patients' BM samples in vitro. […] We then determined whether RUX can augment the anti-MM effects of T-cells in vitro. […] To evaluate the efficacy of drugs in vivo, severe combined immune deficient mice implanted with the human MM xenograft LAGκ-2 were treated with RUX (30 mg/kg). […] In contrast, RUX had no effect on PD-1 expression on T-cells.

[4] = tested on: PD-L2 gene expression; experiment: PD-L2 gene expression (qPCR) in MM BMMCs co-cultured with THP-1 monocytes; type: cell-based, human; details: BMMCs from MM patient #3041 co-cultured with THP-1 monocytes, RUX 1 μM, 48 hours
Method: (§3) MM patient #3041 bone marrow mononuclear cells were co-cultured with THP-1 monocytes with or without RUX (from […] to 10 μM) for 48 hours.
(§4) Next, we investigated the effects of ruxolitinib (RUX) on PD-L1 and PD-L2 gene expression in MM bone marrow mononuclear cells (BMMCs) co-cultured with THP-1 monocytes. THP-1 monocytes co-cultured with primary BMMCs from MM patient #3041 were grown in the presence or absence of RUX (1 μM).

[5] = tested on: IL-2 gene expression; experiment: IL-2 gene expression (qPCR) in BMMCs from three MM patients; type: cell-based, human; details: RUX 1 μM, 24 hours
Method: BMMCs from three MM patients were treated with RUX (1 μM) for 24 hours with or without co-culture with T cells in vitro. IL-2 gene expression levels were determined using qPCR RUX induced IL-2 expression in BMMCs alone and those co-cultured with T cells (SUP-T1, ATCC) in Trans-well culture dishes.

[6] = tested on: B7-H3; experiment: B7-H3 expression (qRT-PCR, flow cytometry, western blot) in MM cells (Example 12); type: cell-based, human
Method: as §1

[7] = tested on: multiple myeloma; details: Phase 1 clinical trial NCT00639002; cited from earlier work
[8] = tested on: PD-L2 gene and protein expression; experiment: PD-L2 gene and protein expression in MM tumor cells alone or co-cultured with stromal cells (Example 11); type: cell-based, human; details: concentration dependent pattern
Method: (§5) BM mononuclear cells (MCs) and serum were collected from MM patients and healthy subjects after obtaining IRB approval. Single-cell suspensions were prepared from human MM LAGκ-1A xenografts which had been grown in the mice. The cells were cultured and treated with or without RUX and then were determined by qPCR, flow cytometric analysis, ELISA, and western blot.
(§6) We further investigated the effects of RUX on PD-L1 and PD-L2 expression in primary and stromal cells from MM patients' BM samples in vitro. […] We then determined whether RUX can augment the anti-MM effects of T-cells in vitro. […] To evaluate the efficacy of drugs in vivo, severe combined immune deficient mice implanted with the human MM xenograft LAGκ-2 were treated with RUX (30 mg/kg).

[9] = tested on: B7-H3 gene expression; experiment: B7-H3 gene expression (qPCR) in MM BMMCs, U266 cells and THP-1 monocytes; type: cell-based, human; details: RUX 1 μM
Method: We further examined BMMCs from two MM patients (#s 2188 and 2935) treated with RUX (1 μM) for 24 hours. RUX reduced B7-H3 gene expression as measured using qPCR in BMMCs (FIG. 7B). We also analyzed BMMCs co-cultured with stromal cells. B7-H3 gene expression was increased 16-fold in BMMCs after these cells were co-cultured with stromal cells. […] We further determined the effect of RUX (1 μM) on gene expression of B7-H3 in the MM cell line U266 co-cultured with THP-1 monocytes (T) after 48 hours. RUX at 1 μM reduced B7-H3 expression in both U266 MM cells and THP-1 monocytes, cultured alone or co-cultured, compared to cell cultures not treated with RUX (FIG. 7D).

[10] = tested on: PD-L1 gene expression; experiment: PD-L1 gene expression (qPCR) in MM BMMCs co-cultured with THP-1 monocytes; type: cell-based, human; details: BMMCs from MM patient #3041 co-cultured with THP-1 monocytes, RUX 1 μM, 48 hours
Method: as §3, §4

[11] = tested on: PD-L1 expression in the xenograft; experiment: PD-L1 expression in human MM xenograft LAGκ-2 in severe combined immune deficient mice; type: in vivo; details: LAGκ-2 in SCID mice; RUX 30 mg/kg; vs untreated control group
Method: as §6

[12] = tested on: PD-L1 protein expression; experiment: PD-L1 protein expression on MM cells by flow cytometry, BMMCs co-cultured with HS-5 stromal cells; type: cell-based, human; details: fresh MM BMMCs co-cultured with HS-5, 72 hours
Method: To investigate the effects of RUX on PD-L1 protein expression on myeloma cell membranes, fresh MM BMMCs were isolated from MM patients and co-cultured with stromal cells (HS-5, ATCC). After 72 hours, cells were fixed using 2% paraformaldehyde for 30 minutes on ice and washed with PBS twice. The cells were stained with anti-PD-L1 antibody conjugated with PE and anti-CD138 antibody conjugated with FITC antibody for 2 hrs and analyzed by flow cytometry using a Beckman Coulter FC500 cytometer with Cytomics CXP software (Beckman Coulter, Fullerton, Calif.).

[13] = tested on: PD-L1 gene and protein expression; experiment: PD-L1 gene and protein expression in MM tumor cells alone or co-cultured with stromal cells (Example 11); type: cell-based, human; details: concentration dependent pattern
Method: as §5, §6

[14] = tested on: MM cells; experiment: Dead MM cells by Trypan blue staining, BMMCs co-cultured with HS-5 stromal cells; type: cell-based, human; details: MM BMMCs co-cultured with HS-5
[15] = tested on: PD-1 expression on T-cells; experiment: PD-1 expression on T-cells (Example 11); type: cell-based

SMILES: N#CC[C@H](C1CCCC1)n1cc(-c2ncnc3[nH]ccc23)cn1 [RUX, ruxolitinib]
- CD8 gene expression in BM cocultured with T cells ([1]; SUP-T1): elevated
- CD8 gene expression in MMBM with lower plasma percentages ([1]; plasma cell percentage <30%): increase
- IL-2 gene expression in BM cocultured with T cells ([2]; SUP-T1): elevated
- IL-2 gene expression in MMBM with lower plasma percentages ([2]; plasma cell percentage <30%): increase
- increase of IL-2 gene expression in MMBM with higher plasma cell percentages ([2]; plasma cell percentage >70%): not
- MM cell apoptosis in the presence of IL-2 stimulated T-cells [3]: increased
- PD-L2 gene expression in MM BMMCs [4]: marked decrease; also recorded: inhibits
- IL-2 expression in BMMCs alone [5]: induced; also recorded: increased
- IL-2 expression in BMMCs co-cultured with T cells ([5]; SUP-T1 in Trans-well dishes): induced
- B7-H3 expression in BM from patients in PD co-cultured with stromal cells (HS-5) ([6]; after 48-72 hours, Rux 1 μM): significantly reduced
- B7-H3 expression in MM cells (U266) ([6]; after 48-72 hours, Rux 1 μM): significantly reduced
- B7-H3 expression in MMBMMCs in patients with PD ([6]; after 48-72 hours, Rux 1 μM): significantly reduced
- B7H3 expression in human MM xenograft model LAGλ-1A ([6]; cultured ex vivo): decreased
- B7-H3 at protein levels ([6]; flow cytometric analysis and western blotting): suppressed
- efficacy of monotherapy for multiple myeloma [7]: ineffective
- PD-L2 gene and protein expression in MM tumor cells [8]: markedly reduced
- B7-H3 gene expression in BMMCs ([9]; BMMCs from two MM patients (#2188, #2935), 24 hours, qPCR): reduced; also recorded: down-regulates
- B7-H3 expression in BMMCs co-cultured with stromal cells [9]: markedly reduced; also recorded: decreases
- B7-H3 expression in U266 MM cells ([9]; cultured alone or co-cultured with THP-1, 48 hours): reduces
- B7-H3 expression in THP-1 monocytes ([9]; cultured alone or co-cultured with U266, 48 hours): reduced
- PD-L1 gene expression in MM BMMCs [10]: marked decrease; also recorded: inhibits
- PD-L1 expression in the xenograft [11]: significantly decreased
- PD-L1-expressing MM tumor cells [12]: reduced in a concentration dependent manner
- PD-L1 gene and protein expression in MM tumor cells [13]: markedly reduced
- percentage of dead MM cells [14]: increased in a concentration dependent fashion
- PD-1 expression on T-cells [15]: no effect
